pEC50, pKi: −log10 of the molar value.
Key:
[1] = Tmax after oral administration at 30 mg/kg in ICR mouse; assay type: ADME, organism-based; design: dose 30 mg/kg, route oral; conditions: in vivo
[2] = AUC (0-6 hr) after oral administration at 30 mg/kg in ICR mouse; assay type: ADME, organism-based; design: time < 6 hr, route oral, dose 30 mg/kg; conditions: plasma
[3] = test system: Mus musculus; experiment: Cmax after oral administration at 30 mg/kg in ICR mouse; assay type: ADME, organism-based; design: dose 30 mg/kg, route oral; conditions: in vivo
[4] = target: RXR alpha/PPAR gamma (Homo sapiens, UniProt P19793); experiment: Synergistic activation of BRL-49653 mediated PPAR gamma and retinoid X receptor alpha expressed in CV-1 cell transcriptional activation assay; assay type: functional, cell-based
Sequence of RXR alpha/PPAR gamma (P37231 whole entry, one chain of several): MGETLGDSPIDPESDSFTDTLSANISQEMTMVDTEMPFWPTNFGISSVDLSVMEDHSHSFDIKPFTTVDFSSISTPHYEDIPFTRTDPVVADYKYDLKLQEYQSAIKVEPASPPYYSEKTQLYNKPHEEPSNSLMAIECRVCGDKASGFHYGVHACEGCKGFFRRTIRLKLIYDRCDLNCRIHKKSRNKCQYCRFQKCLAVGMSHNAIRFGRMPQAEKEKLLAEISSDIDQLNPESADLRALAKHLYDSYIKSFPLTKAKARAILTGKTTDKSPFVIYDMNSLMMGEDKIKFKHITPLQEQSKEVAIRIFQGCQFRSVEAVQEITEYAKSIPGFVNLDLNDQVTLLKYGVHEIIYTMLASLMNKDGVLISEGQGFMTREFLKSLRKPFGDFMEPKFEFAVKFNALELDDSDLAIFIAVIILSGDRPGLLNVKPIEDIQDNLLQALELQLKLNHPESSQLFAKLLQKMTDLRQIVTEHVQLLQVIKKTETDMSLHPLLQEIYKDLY

[5] = target: T1, Retinoic acid receptor gamma (Homo sapiens, UniProt P13631); experiment: Inhibition of 3[H]ATRA binding to retinoid acid receptor gamma expressed in CV-1 cells; assay type: cell-based
T1 sequence (P13631 whole entry): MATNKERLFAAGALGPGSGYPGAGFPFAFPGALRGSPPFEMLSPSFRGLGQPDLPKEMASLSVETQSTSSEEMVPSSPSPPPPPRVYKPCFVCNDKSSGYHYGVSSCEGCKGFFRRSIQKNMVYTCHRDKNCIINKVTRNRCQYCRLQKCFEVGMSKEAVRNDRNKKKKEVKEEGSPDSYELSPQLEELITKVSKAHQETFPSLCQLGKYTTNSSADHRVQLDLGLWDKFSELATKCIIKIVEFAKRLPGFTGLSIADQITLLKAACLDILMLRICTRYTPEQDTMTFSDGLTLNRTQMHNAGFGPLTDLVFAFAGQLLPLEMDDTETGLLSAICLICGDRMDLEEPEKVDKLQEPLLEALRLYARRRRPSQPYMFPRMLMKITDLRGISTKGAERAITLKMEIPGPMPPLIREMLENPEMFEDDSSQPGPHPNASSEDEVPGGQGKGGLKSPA

[6] = target: T2, Retinoic acid receptor RXR-alpha (Homo sapiens, UniProt P19793); experiment: Inhibition of 3[H]9-cis-retinoic acid binding to Retinoic acid receptor RXR-alpha expressed in CV-1 cells; assay type: cell-based
T2 sequence (P19793 whole entry): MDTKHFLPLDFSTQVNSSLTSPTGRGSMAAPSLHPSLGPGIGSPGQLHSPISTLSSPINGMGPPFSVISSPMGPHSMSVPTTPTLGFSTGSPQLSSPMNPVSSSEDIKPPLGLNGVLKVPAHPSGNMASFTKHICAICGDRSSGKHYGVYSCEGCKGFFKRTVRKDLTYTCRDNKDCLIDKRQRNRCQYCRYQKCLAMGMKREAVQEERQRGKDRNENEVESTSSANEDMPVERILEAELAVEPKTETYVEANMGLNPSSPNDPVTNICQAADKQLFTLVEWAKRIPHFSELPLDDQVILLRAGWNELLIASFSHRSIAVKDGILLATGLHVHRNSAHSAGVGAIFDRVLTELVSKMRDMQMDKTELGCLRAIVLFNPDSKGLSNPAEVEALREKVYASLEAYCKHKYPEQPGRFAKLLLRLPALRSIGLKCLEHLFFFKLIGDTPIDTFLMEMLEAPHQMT

[7] = target: T2, Retinoic acid receptor RXR-alpha; experiment: Antagonist activity against Retinoic acid receptor RXR-alpha expressed in CV-1 cell transcriptional activation assay; assay type: functional, cell-based
[8] = species: Homo sapiens; experiment: Synergistic activation of retinoid acid receptor (RAR) transcriptional activation at 3 nM TTNPB; assay type: functional
[9] = target: T2, Retinoic acid receptor RXR-alpha; experiment: Agonist activity against Retinoic acid receptor RXR-alpha expressed in CV-1 cell transcriptional activation assay; assay type: functional, cell-based

SMILES	Tmax [1] [h]	AUC(0-t) at 6 h [2] [ng·h/mL]	Cmax [3] [ng/mL]	pEC50 [4]	pKi [5]	pKi [6]	pEC50 [7]	Synergy [8]	pEC50 [9]
CC(/C=C/C(F)=C(/C)c1cc(C(C)(C)C)cc(C(C)(C)C)c1OCC(F)F)=C\C(=O)O	3	17800	3690	8.19	< 5.00	8.11	8.17	1.8	
C/C(=C/C=C/C(C)=C(\F)C(=O)O)c1cc(C(C)(C)C)cc(C(C)(C)C)c1OCC(F)F				8.57	< 5.00	7.97	8.47	1.5	
CCOc1c(\C(=C/C=C/C(C)=C/C(=O)O)C(F)(F)F)cc(C(C)(C)C)cc1C(C)(C)C				6.78		7.30	7.42	7	
C/C(=C/C(F)=C/C(C)=C/C(=O)O)c1cc(C(C)(C)C)cc(C(C)(C)C)c1OCC(F)F				6.60	< 5.00		5.06	8.9	6.59
CCCCOc1c(\C(C)=C/C=C/C(=C/C(=O)O)C(F)(F)F)cc(C(C)(C)C)cc1C(C)(C)C				6.44	< 5.00	5.28	6.09	1.3	
CCOc1c(\C(C)=C/C=C/C(C)=C/C(=O)O)cc(C(C)(C)C)cc1C(C)(C)C					5.07		8.19	2	
C/C(=C/C=C/C(C)=C/C(=O)O)c1cc(C(C)(C)C)cc(C(C)(C)C)c1OCC(F)F	1	2090	1200		< 5.00			1.4	
C/C(=C/C=C(F)/C(C)=C/C(=O)O)c1cc(C(C)(C)C)cc(C(C)(C)C)c1OCC(F)F				6.84	< 5.00		5.31	2.5	
CCCCOc1c(\C(C)=C/C=C/C(C)=C/C(=O)O)cc(C(C)(C)C)cc1C(C)(C)C				8.04	< 5.00	8.42	8.48	1.2	

Source: ChEMBL document CHEMBL1136229, “Design and synthesis of fluorinated RXR modulators” (Bioorg Med Chem Lett, 2003)
